These results are taken from patent publication US9249466B2, “Methods and compositions for treating cancer” (Agency for Science, Technology and Research, priority 2010, dated 2016).

“Also recorded” adds a separate entry of the source. Where only a bound is given, the exact number is not on record here.

For data set [1], the system named is IgE-like antibodies. Conditions: in vivo; cited from earlier work.
Data set [2] relates to HCT116 and DKO cells. Description: Rapamycin-induced growth inhibition in HCT116 and DKO cells. Type of data set: cell-based, human. The following applies: DKO cells compared to parental HCT116 cells. The procedure: (§1) Cell viability was measured using CellTiter-Glo™ Luminescent Cell Viability Assay (Promega).
(§2) In brief, 1000 cells were seeded in 96-well plate and the cell number was measured following manufacturer's instruction. To detect the senescence in DLD1-tet on cells, cells were treated with Dox for 48 hr and SA-β-Gal staining was performed according to the protocol of Senescence Detection kit (BioVision). Cell cycle analysis was done by DNA content quantification.

Data set [3] concerns DLD1-PPP2R2B cells. Put plainly: Xenograft tumor growth of DLD1-PPP2R2B cells in nude mice. In kind it is in vivo, BALB/c nude mice. How it is done: The female athymice BALB/c nude mice (5-8 week-old) were housed in the Biological Resource Centre. Mice were implanted subcutaneously in both sides of flank with 3×10^6 DLD1-PPP2R2B or control DLD1 cells, respectively.
When tumors reached ˜70 mm^3, the mice were divided two groups (6 mice per group) and the Doxycyclin was administrated by oral gavages at 100 mg/kg daily. Tumor progress was monitored with whole body weight and tumor size for every other day. For combination treatment with rapamycin and doxycycline, the same dose of doxycyclin was given at every other day and rapamycin was administered by intraperitoneal injection at 4 mg/kg at Day 3, 5, 7 and 11.
Tumor diameters were measured every 3-4 days with caliper and tumor volumes were calculated from 7-9 mice per data time point. All animal work was performed in accordance with animal experiments guidelines of Singapore.

For data set [4], the system named is DLD1-PPP2R2B cells. Description: Cell viability assay in DLD1-PPP2R2B cells. Type of data set: cell-based, human. The following applies: 10 nM rapamycin, PPP2R2B re-expressed by Dox vs no Dox, 5 days. The procedure: as §1, §2
Data set [5] deals with huntingtin accumulation and cell death. Conditions: cell models of HD; cited from earlier work.
Data set [6] has as its system Candida albicans. Conditions: in vitro and in vivo; cited from earlier work.
For data set [7], the system named is DLD1-PPP2R2B cells. Description: Cell cycle analysis by flow cytometry in DLD1-PPP2R2B cells. In kind it is cell-based, human. The following applies: rapamycin added to Dox-induced PPP2R2B expression, 48 h. The procedure: as §2
The cells were fixed with 70% ethanol and stained with propidium iodide (50 μg/ml) staining. The stained cells were analyzed by FACScalibur (BD Bioscience) and quantified by using CellQuest software (BD bioscience).

Data set [8] has as its system p-AKT (S473). Description: Immunoblot analysis of AKT S473 phosphorylation. Type of data set: cell-based, human. Background: Immunoblotting shows a protein as a band on a membrane.
Data set [9] concerns cytochrome P-450 3A. The following applies: cited from earlier work.
Data set [10] has as its system DLD1-PPP2R2B cells. Description: Dense foci / colony formation assay in DLD1-PPP2R2B cells. Type of data set: cell-based, human. Conditions: 10 nM rapamycin, PPP2R2B re-expressed by Dox vs no Dox, 14 days. The procedure:
For DLD1 and HCT116 inducible cells foci formation assay, 1×10^4 cells were seeded on 6-well plate with or without treatment with Dox or rapamcycin. Cells were grown for 2 weeks and the surviving colonies were stained with gentian violet after methanol fixation, and visible colonies (>50 cells) were counted.

In data set [11] the test system is neurodegeneration. The following applies: fly model of HD; cited from earlier work.
Data set [12] deals with CRC cell lines. Put plainly: Cell viability (CellTiter-Glo): rapamycin-induced growth inhibition in CRC cell lines. In kind it is cell-based. The following applies: Homo sapiens, 120 h; 10 nM rapamycin, 5 days treatment, all examined CRC cell lines; read-out: rapamycin-induced growth inhibition compared to untreated cells. The procedure:
as §1, §2

For data set [13] the following is noted: bile of treated rats; cited from earlier work.
Data set [14] has as its system adjuvant arthritis. Conditions: model for rheumatoid arthritis; cited from earlier work.
Data set [15] deals with p70S6K and S6 phosphorylation. Put plainly: Immunoblot analysis of p70S6K and S6 phosphorylation. In kind it is cell-based, human. Conditions: DLD1 vector control and PPP2R2B expressing cells, 10 nM rapamycin.
The conditions of data set [16]: animal models; cited from earlier work.
Data set [17] concerns p-Myc(T58/S62). Description: Immunoblot analysis of Myc phosphorylation. In kind it is cell-based, human.
For data set [18], the system named is PPP2R2B-expressing cancer cell lines. Put plainly: Rapamycin-induced growth inhibition in PPP2R2B-expressing cancer cell lines. Conditions: 10 nM rapamycin, 5 days; compared to CRC cell lines. In kind it is cell-based, human. How it is done:
as §1, §2

Data set [19] has as its system experimental allergic encephalomyelitis. Conditions: model for multiple sclerosis; cited from earlier work.
For data set [20], the system named is SW480 and DLD1 cells. Description: Apoptotic assay in SW480 and DLD1 cells. The following applies: BI2536 10 nM plus BEZ 235 100 nM, 48 hr. In kind it is cell-based, human.
The test system of data set [21] is DLD1 and SW480 cells. Put plainly: Monolayer dense foci / colony formation of DLD1 and SW480 cells. Type of data set: cell-based, human. Conditions: monolayer colony formation, 12 days. How it is done: For DLD1 and HCT116 inducible cells foci formation assay, 1×10^4 cells were seeded on 6-well plate with or without treatment with Dox or rapamcycin. […]
Data set [22] relates to HEK-PDK1 cells. Put plainly: Tumor sphere formation in HEK-PDK1 cells. In kind it is cell-based, human. Conditions: 5 nM BI2536 for 7 days.
Data set [23] has as its system HEK-TERV cells. Description: Apoptotic assay in HEK-TERV cells. Type of data set: cell-based, human. The following applies: 10 nM for 24 h; PDK1-transformed vs control or PI3K (E545)-transformed cells.
Data set [24] concerns DLD1 and SW480 cells. Put plainly: Cell viability of DLD1 and SW480 cells under drug combinations. Type of data set: cell-based, human. The following applies: SW480 and DLD1 cells, BI 2536 10 nM plus BEZ 235 10 nM. The procedure:
as §1, §2

Where [25] appears, read: DLD1 cells serum starved 48 h, then 10 nM rapamycin.

As for `CO[C@H]1C[C@@H]2CC[C@@H](C)[C@@](O)(O2)C(=O)C(=O)N2CCCC[C@H]2C(=O)O[C@H]([C@H](C)C[C@@H]2CC[C@@H](O)[C@H](OC)C2)CC(=O)[C@H](C)/C=C(\C)[C@@H](O)[C@@H](OC)C(=O)[C@H](C)C[C@H](C)/C=C/C=C/C=C/1C` [rapamycin, (3S,6R,7E,9R,10R,12R,14S,15E,17E,19E,21S,23S,26R,27R,34aS)-9,10,12,13,14,21,22,23,24,25,26,27,32,33,34,34a-hexadecahydro-9,27-dihydroxy-3-[(1R)-2-[(1S,3R,4R)-4-hydroxy-3-methoxycyclohexyl]-1-methylethyl]-10,21-dimethoxy-6,8,12,14,20,26-hexamethyl-23,27-epoxy-3H-pyrido[2,1-c][1,4]-oxaazacyclohentriacontine-1,5,11,28,29(4H,6H,31H)-pentone], in data set [1], the “formation of IgE-like antibodies” value is reported as “effectively inhibited”. Further, in [2], the “sensitivity to rapamycin treatment” value is given as “more sensitive”. In addition, in [3] (rapamycin 4 mg/kg i.p. or Dox 100 mg/kg oral alone, every other day), the “xenograft tumor growth, single treatment” value was “moderately attenuated”. In addition, in data set [3] (rapamycin 4 mg/kg plus Dox 100 mg/kg (PPP2R2B re-expression)), the “xenograft tumor growth, combination of rapamycin and Dox” value was “strong tumor growth inhibition”. Besides, in data set [4], the “rapamycin-induced growth inhibition (cell viability assay)” value is “much more effective”. Moreover, in data set [5], the “huntingtin accumulation and cell death” value was “attenuates huntingtin accumulation and cell death”. For the same compound, in data set [6], the antifungal activity entry was “antifungal activity”. Besides, the “cell cycle G2 arrest” value in data set [7] was “markedly augmented”. In addition, the “AKT S473 phosphorylation” value is on record as “induction of AKT S473 phosphorylation” in data set [8] (CRC cells (DLD1), 10 nM rapamycin); “similarly induced” in data set [8] (HCT116 and DKO cells, 10 nM rapamycin); “consistent induction of AKT S473 phosphorylation” in [8] (PPP2R2B-expressing cancer cell lines). Further, in [8] (setting [25]), the “rapamycin-induced AKT S473 phosphorylation under serum starvation” value is on record as “abolished”. The “number of metabolites formed” value in [9] is given as “at least six metabolites”. Besides, the “rapamycin-induced growth inhibition (colony formation assay)” value in data set [10] is “much more effective”. The neurodegeneration result in [11] is “protects against neurodegeneration”. For the same compound, the inhibition at 0.01 µM in data set [12] was under 10%. The “number of hydroxylated and demethylated metabolites detected” value in [13] is given as over 16. For the same compound, the efficacy entry in [14] and in data set [19] was “effective” throughout. For the same compound, the “p70S6K and S6 phosphorylation” value in data set [15] is “effectively abolished”. Further, in [16], the nephrotoxicity entry is “no nephrotoxicity has been detected”. For the same compound, the Myc phosphorylation entry in data set [17] (DKO (DNMTs-deficient HCT116) cells, 10 nM rapamycin) is listed as “did not respond to rapamycin”; in [17] (HCT116 cells, 10 nM rapamycin), “strongly induced”; in [17] (PPP2R2B-expressing cancer cell lines (HepG2, HepB3, 786-O, Caki2, OVCAR3, OVCAR5, SK-OV-3, U2OS)) it was “none of these PPP2R2B-expressing cancer cell lines showed an induction of Myc phosphorylation”; in [17] (all examined CRC cell lines, rapamycin 48 hr), “marked induction of Myc phosphorylation”. Also, the “rapamycin-induced Myc phosphorylation under serum starvation” value in data set [17] (setting [25]) was “no significant effect”. Moreover, the “Myc phosphorylation and protein accumulation” value in [17] (DLD1 cells, 10 nM rapamycin, 48 hr) is “strong induction of Myc phosphorylation and protein accumulation; also recorded: induces Myc phosphorylation”. Besides, the “time at which the Myc response occurred” value in [17] (DLD1 cells, 10 nM rapamycin, time course) is 4 h. Also, the sensitivity to rapamycin result in [18] is on record as “much more sensitive”.
`CC[C@@H]1C(=O)N(C)c2cnc(Nc3ccc(C(=O)NC4CCN(C)CC4)cc3OC)nc2N1C1CCCC1` [BI2536]: the “apoptosis in combination with BEZ235” value in data set [20] was “strong synergistic”. Also, the “long term colony formation in combination with BEZ235” value in data set [21] is given as “strong synergistic”. Also, the tumor sphere formation entry in data set [22] is given as “blocks the tumor sphere formation; also recorded: abolished the PDK1-driven tumorspheres formation”. The apoptosis result in [23] was “selectively induced apoptosis in PDK1-transformed cells”. Also, in data set [24], the “growth inhibition in combination with BEZ235” value is on record as “strong synergistic growth inhibition”.

For orientation: inhibition means the change of the read-out against control, counted positive when it falls.
